{"source": "patent US20240335539A1", "about": "“MODULATION OF BCL-2 TO ENHANCE CHIMERIC ANTIGEN RECEPTOR CANCER IMMUNOTHERAPY EFFICACY” (The Trustees of the University of Pennsylvania, priority 2021, published 2024)", "test_system": "mantle cell lymphoma (MCL)", "assay": "Clinical outcomes of MCL patients after brexucabtagene autoleucel by venetoclax bridging therapy", "format": "in vivo, human", "description": "FIGS. 13A-13H illustrate the finding that chromosomal alterations of BCL-2 in lymphoma patients associate with poor prognosis of CART therapy. FIG. 13A is a schematic of the strategy used herein to investigate whether genetic alteration of BCL-2 affects CART's anti-tumor clinical response. Pre-CART biopsies from patients with LCL were analyzed by fluorescence in situ hybridization (FISH) to search for BCL-2 chromosomal aberration. […] FIG. 13F is a schematic of the strategy used herein to investigate the impact of venetoclax bridging therapy on CART19's clinical response in MCL patients. […]\nFor the large B cell lymphoma cohort, clinical data were collected from patients diagnosed with DLBCL not otherwise specified (NOS), high-grade B cell lymphoma (HGBCL) NOS, HGBCL with MYC and BCL-2 and/or BCL-6 rearrangements, and transformed follicular lymphoma treated at the University of Pennsylvania using two commercial CART19 products (tisagenlecleucel or axicabtagene ciloleucel, UPCC44420) or enrolled in the CTL019 clinical trial NCT02030834. Only patients evaluated for chromosomal alterations involving the BCL-2 locus by interim FISH analysis were included in the current study. […] Disease response was determined according to Lugano classification. […]"}
{"smiles": "CC1(C)CCC(CN2CCN(c3ccc(C(=O)NS(=O)(=O)c4ccc(NCC5CCOCC5)c([N+](=O)[O-])c4)c(Oc4cnc5[nH]ccc5c4)c3)CC2)=C(c2ccc(Cl)cc2)C1", "note": "[venetoclax]", "values": [{"measurement": "complete response rate after brex-cel", "setting": "bridging therapy including venetoclax (7/8)", "value": 87.5, "unit": "%"}, {"measurement": "patients in complete response at one year", "setting": "venetoclax bridging therapy before brex-cel", "value": 100, "unit": "%"}]}
